IC50 and EC50 data for twelve compounds are collected here from patent US8471027B2, “Adamantyl compounds” (Hoffmann-La Roche Inc., priority 2011, dated 2013).

pEC50, pIC50: −log10 of the molar value.

One assay concerns the target JNK1 (Homo sapiens, UniProt P45983). The experiment in a line: In vitro JNK1 Assay (TR-FRET, phosphorylation of GST-c-Jun). In kind it is biochemical. The conditions noted are these: 0.2 nM JNK1, 26.7 nM GST-c-Jun, 2 μM ATP. How it is done: Phosphorylation of GST-c-Jun protein (amino acid residues 1-79) was measured as JNK1 activity. […] The reaction buffer contained 50 mM HEPES, pH 7.0, 10 mM MgCl2, 1 mM DTT, 0.1 mM Na3 VO4 and 0.2 mg/mL BSA. After 30 min. incubation at room temperature, the reaction was terminated by adding buffer containing 8 mM EDTA and a polyclonal anti-phospho-c-Jun antibody (Cell Signaling #9261L), followed by an additional incubation of 30 min. at room temperature. […] Time-resolved Fluorescence Resonance Energy Transfer (TR-FRET) signals were measured 1 hr. later on the EnVision reader (Perkin Elmer). Compound potency was assessed at 10 serially diluted concentrations. Percentage of inhibition at each concentration was determined to generate an IC50 value for each compound.

The subject of assay [1] is phospho(Ser63)-c-jun in HK-2 cells. Description: Cell-based assay for JNK inhibitors: in-cell ELISA of TNFα-stimulated phospho(Ser63)-c-jun in HK-2 cells. The conditions noted are these: Homo sapiens, 10 ng/mL TNFα, 60 min preincubation with compound. How it is done: Cell-Based Assay for JNK Inhibitors
The cell-based assay employed the in-cell ELISA method to determine the ability of compounds to prevent the generation of phospho(Ser63)-c-jun in HK-2 cells (human proximal tubule cells) in response to stimulation with tumor necrosis factor α (TNFα). In brief, for quantification of phospho(Ser63)-c-jun, the cells (in 96-well format) were fixed and permeablized then incubated sequentially with a rabbit anti-phospho-c-jun First Antibody specific for the presence of the phospho-Ser63 epitope and a donkey anti-rabbit IgG Second Antibody linked to horseradish peroxidase (HRP) for colorimetric quantitation of binding. For determination of non-specific binding of the First Antibody, Blank wells were preincubated with a mouse anti-phospho(Ser63)-c-jun Blocking Antibody that prevented specific binding of the First Antibody to the phospho-Ser63 epitope, but which was not recognized by the donkey anti-rabbit IgG Second Antibody. […] Blank wells received no TNFα stimulation or compound. Additional Control wells received TNFα stimulation, but no compound. The signal obtained in this case was considered the value for 0% inhibition (Control value).
Stock cultures of HK-2 cells (ATCC, Manassas, Va.) were grown under a 5% CO2/[…] atmosphere at 37 degrees C. in Keratinocyte-SFM medium (KSFM, Invitrogen, Grand Island, N.Y.) containing 5 μg/L epidermal growth factor and 5 mg/L bovine pituitary extract (both supplied with the medium), additionally supplemented with 10% (v/v) fetal calf serum (FCS; Invitrogen, Grand Island, N.Y.) and 1% (v/v) antibiotic-antimycotic (ABAM: Sigma, St. Louis, Mo.). For assays, cells were seeded in collagen coated 96-well polystyrene plates (BD Biosciences, Franklin Lakes, N.J.) at a density of 40,000 cells/well and cultured for 24 h in the same medium (100 μL/well) followed by a further 16-24 h in 100 μL of similar medium, but without FCS. […] Cells were incubated for a further 30 minutes and then the medium was aspirated and the wells washed with 100 μL/well PBS followed by the addition of 100 μL 3.7% (v/v) Formaldehyde (Fisher Scientific, Fair Lawn, N.J.) in PBS. Plates were then allowed to stand at room temperature for 20 minutes before being washed with 200 μL/well of PBS. (Further steps were performed immediately or the plates were stored at 4 degrees C. and the assay completed the next day.) To each well was added 100 μL 1% (v/v) TritonX-100 (Sigma, St. Louis, Mo.) in PBS followed by 20 minutes standing at room temperature, washing with 200 μL/well PBS, the addition of 100 μL/well of Quenching buffer (1% (v/v) hydrogen peroxide (Sigma, St. Louis, Mo.) and 0.1% (w/v) sodium azide (Fisher Scientific, Fair Lawn, N.J.)) in PBS and a further 20 minutes at room temperature. Plates were then washed twice with 200 μL/well of 0.1% (v/v) Tween-20 (Teknova, Hollister, Calif.) in PBS before addition of 200 μL/well of 2% BSA/0.10% Tween-20 in PBS and a further 1 hour at room temperature. At this time, buffer was removed from Blank wells and replaced with 90 μL/well of mouse anti-phospho-c-jun-Ser63 (BD Bioscience, 558036) diluted 1:4000 in PBS containing 1% BSA/0.1% Tween-20 (Antibody Dilution Buffer). All other wells are replaced with 90 μL/well of rabbit anti-phospho-c-jun-Ser63 (Cell Signaling, 9261) diluted 1:250 in Antibody Dilution Buffer. After a further one hour, rabbit anti-phospho-c-jun-Ser63 is added directly to the solution in the Blank wells resulting in 1:250 dilution of this antibody. Plates were then placed on a slowly rotating platform at 4 degrees C. overnight. Wells were then washed thrice with 200 μL/well PBS/0.1% Tween-20. After addition of the third wash, the plates were placed on a slowly rotating platform for 15 minutes at room temperature. […]

Chain of JNK1 (P45983 whole entry, species assumed, the tested form may be a part): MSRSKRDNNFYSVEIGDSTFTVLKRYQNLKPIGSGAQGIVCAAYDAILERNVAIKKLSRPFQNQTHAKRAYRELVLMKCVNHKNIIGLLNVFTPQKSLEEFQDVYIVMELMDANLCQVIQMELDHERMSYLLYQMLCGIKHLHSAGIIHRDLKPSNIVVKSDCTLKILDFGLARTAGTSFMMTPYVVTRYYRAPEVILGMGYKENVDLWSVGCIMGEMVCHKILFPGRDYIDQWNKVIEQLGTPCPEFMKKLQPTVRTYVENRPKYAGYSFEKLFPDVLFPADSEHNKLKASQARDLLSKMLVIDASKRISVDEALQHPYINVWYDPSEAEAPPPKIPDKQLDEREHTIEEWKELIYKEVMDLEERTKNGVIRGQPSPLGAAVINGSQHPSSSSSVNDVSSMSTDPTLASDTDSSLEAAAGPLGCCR

`COC(=O)c1c(Cc2ccc(C(=O)N[C@@H]3[C@@H]4C[C@@H]5C[C@H]3C[C@@](NCC(C)(C)O)(C5)C4)cc2)c(=O)c2ccc(Cl)cc2n1-c1ccccc1` [Compound I-16, rel-7-Chloro-3-{4-[(1S,2S,3R,5S,7S)-5-(2-hydroxy-2-methyl-propylamino)-adamantan-2-ylcarbamoyl]-benzyl}-4-oxo-1-phenyl-1,4-dihydro-quinoline-2-carboxylic acid methyl ester] gave a pIC50 against JNK1 of 8.00. In addition, the negative-log EC50 (pEC50) in assay [1] is 5.72.
For the compound `COC(=O)c1c(Cc2ccc(C(=O)N[C@@H]3[C@@H]4C[C@@H]5C[C@H]3C[C@@](NC(C)=O)(C5)C4)cc2)c(=O)c2cccnc2n1-c1ccccc1` [Compound I-17, rel-3-[4-((1S,2S,3R,5S,7S)-5-Acetylamino-adamantan-2-ylcarbamoyl)-benzyl]-4-oxo-1-phenyl-1,4-dihydro-[1,8]naphthyridine-2-carboxylic acid methyl ester], on JNK1, the negative-log IC50 (pIC50) was 7.59. The negative logarithm of the EC50 (pEC50) in assay [1] was 5.51.
For `COC(=O)c1c(Cc2ccc(C(=O)N[C@@H]3[C@@H]4C[C@@H]5C[C@H]3C[C@@](NS(=O)(=O)C3CC3)(C5)C4)cc2)c(=O)c2cccnc2n1-c1ccccc1` [Compound I-18, rel-3-[4-((1S,2S,3R,5S,7S)-5-Cyclopropanesulfonylamino-adamantan-2-ylcarbamoyl)-benzyl]-4-oxo-1-phenyl-1,4-dihydro-[1,8]naphthyridine-2-carboxylic acid methyl ester], the pIC50 on JNK1 is 8.30. In assay [1], the pEC50 was 5.74.
For `COC(=O)c1c(Cc2ccc(C(=O)N[C@@H]3[C@@H]4C[C@@H]5C[C@H]3C[C@@](NS(C)(=O)=O)(C5)C4)cc2)c(=O)c2cccnc2n1-c1ccccc1` [Compound I-19, rel-3-[4-((1S,2S,3R,5S,7S)-5-Methanesulfonylamino-adamantan-2-ylcarbamoyl)-benzyl]-4-oxo-1-phenyl-1,4-dihydro-[1,8]naphthyridine-2-carboxylic acid methyl ester] the same measures were 7.96 and 5.68.
On JNK1, `COC(=O)c1c(Cc2ccc(C(=O)N[C@@H]3[C@@H]4C[C@@H]5C[C@H]3C[C@@](NC(=O)C(C)(C)C)(C5)C4)cc2)c(=O)c2cccnc2n1-c1ccccc1` [Compound I-20, rel-3-{4-[(1S,2S,3R,5S,7S)-5-(2,2-Dimethyl-propionylamino)-adamantan-2-ylcarbamoyl]-benzyl}-4-oxo-1-phenyl-1,4-dihydro-[1,8]naphthyridine-2-carboxylic acid methyl ester] showed a pIC50 of 7.41. The pEC50 in assay [1] was 5.28.
For the compound `COC(=O)c1c(Cc2ccc(C(=O)N[C@@H]3[C@@H]4C[C@@H]5C[C@H]3C[C@@](NC(=O)C(C)(C)OC(C)=O)(C5)C4)cc2)c(=O)c2cccnc2n1-c1ccccc1` [Compound I-21, rel-3-{4-[(1S,2S,3R,5S,7S)-5-(2-Acetoxy-2-methyl-propionylamino)-adamantan-2-ylcarbamoyl]-benzyl}-4-oxo-1-phenyl-1,4-dihydro-[1,8]naphthyridine-2-carboxylic acid methyl ester], the pIC50 at JNK1 was 7.60. Also, the negative logarithm of the EC50 (pEC50) in assay [1] was 5.32.
Consider `COC(=O)c1c(Cc2ccc(C(=O)N[C@@H]3[C@@H]4C[C@@H]5C[C@H]3C[C@@](NC(=O)C(C)(C)O)(C5)C4)cc2)c(=O)c2cccnc2n1-c1ccccc1` [Compound I-22, rel-3-{4-[(1S,2S,3R,5S,7S)-5-(2-Hydroxy-2-methyl-propionylamino)-adamantan-2-ylcarbamoyl]-benzyl}-4-oxo-1-phenyl-1,4-dihydro-[1,8]naphthyridine-2-carboxylic acid methyl ester], for which the pIC50 on JNK1 is 7.66. Further, the pEC50 in assay [1] was 5.39.
For `COC(=O)c1c(Cc2ccc(C(=O)N[C@@H]3[C@@H]4C[C@@H]5C[C@H]3C[C@@](O)(C5)C4)cc2OC)c(=O)c2cccnc2n1-c1ccccc1` [Compound I-23, rel-3-[4-((1S,2S,3R,5S,7S)-5-Hydroxy-adamantan-2-ylcarbamoyl)-2-methoxy-benzyl]-4-oxo-1-phenyl-1,4-dihydro-[1,8]naphthyridine-2-carboxylic acid methyl ester], on JNK1, the pIC50 was 7.57. Moreover, the pEC50 in assay [1] is 5.11.
In the case of `COC(=O)c1c(Cc2ccc(C(=O)N[C@@H]3[C@@H]4C[C@@H]5C[C@H]3C[C@@](O)(C5)C4)cc2F)c(=O)c2cccnc2n1-c1ccccc1` [Compound I-24, rel-3-[2-Fluoro-4-((1S,2S,3R,5S,7S)-5-hydroxy-adamantan-2-ylcarbamoyl)-benzyl]-4-oxo-1-phenyl-1,4-dihydro-[1,8]naphthyridine-2-carboxylic acid methyl ester], the negative logarithm of the IC50 (pIC50) on JNK1 was 7.47. The pEC50 in assay [1] is 5.07.
At JNK1, `COC(=O)c1c(Cc2ccc(C(=O)N[C@@H]3[C@@H]4C[C@@H]5C[C@H]3C[C@@](O)(C5)C4)cc2)c(=O)c2ccc(C(F)(F)F)nc2n1-c1ccccc1` [Compound I-25, rel-3-[4-((1S,2S,3R,5S,7S)-5-Hydroxy-adamantan-2-ylcarbamoyl)-benzyl]-4-oxo-1-phenyl-7-trifluoromethyl-1,4-dihydro-[1,8]naphthyridine-2-carboxylic acid methyl ester] gave a pIC50 of 7.11. Further, the negative logarithm of the EC50 (pEC50) in assay [1] is 5.44.
At JNK1, `COC(=O)c1c(Cn2ccc(C(=O)N[C@@H]3[C@@H]4C[C@@H]5C[C@H]3C[C@@](O)(C5)C4)cc2=O)c(=O)c2ccc(Cl)cc2n1-c1ccccc1` [Compound I-26, rel-7-Chloro-3-[4-((1S,2S,3R,5S,7S)-5-hydroxy-adamantan-2-ylcarbamoyl)-2-oxo-2H-pyridin-1-ylmethyl]-4-oxo-1-phenyl-1,4-dihydro-quinoline-2-carboxylic acid methyl ester] showed a pIC50 of 7.40. Moreover, the pEC50 in assay [1] is 5.41.
For `O=C(N[C@@H]1[C@@H]2C[C@@H]3C[C@H]1C[C@@](O)(C3)C2)c1ccc(Cc2c(-c3ncco3)n(-c3ccccc3)c3cc(Cl)ccc3c2=O)cc1` [Compound I-27, Rel-4-(7-Chloro-2-oxazol-2-yl-4-oxo-1-phenyl-1,4-dihydro-quinolin-3-ylmethyl)-N-((1S,2S,3R,5S,7S)-5-hydroxy-adamantan-2-yl)-benzamide] the same measures were 7.57 and 5.07.
